Values joined by “and” are separate entries in the source; they are usually repeats but may differ in a detail not shown here. Equal entries are not always repeated. Bridges are numbered along the chain shown (N, C = ends). Where no end group is shown, it is not given here. [ ]: non-standard residue; d: D form. Lys(N3) = [N-]=[N+]=NCCCC[C@H](N)C(=O)O
Key:
FMC63^scFv [1] = assay: FMC63 scFv binding to K562 cells labeled with amph-mimotopes (Fig 3J); conditions: read-out: Kd^scFv (apparent); K562 labeled with 500 nM amph-mimotope, fluorescent FMC63^scFv, flow cytometry
Target sequence in this assay (as listed by the source): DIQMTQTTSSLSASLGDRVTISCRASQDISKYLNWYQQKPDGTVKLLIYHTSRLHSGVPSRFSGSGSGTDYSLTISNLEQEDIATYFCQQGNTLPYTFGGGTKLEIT
Target sequence in this assay (as listed by the source): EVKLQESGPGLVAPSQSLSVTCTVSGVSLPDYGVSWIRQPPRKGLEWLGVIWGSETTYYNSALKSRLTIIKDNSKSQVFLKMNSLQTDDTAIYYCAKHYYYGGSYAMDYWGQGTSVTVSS

CD19 CAR-T cells = assay: IFN-γ ELISA, human CD19 CAR-T co-cultured with amph-mimotope-labeled K562 cells (Fig 2H); assay type: cell-based; conditions: 6 hr
EGFRvIII-CAR-T cells = assay: IFN-γ ELISA, control EGFRvIII-CAR-T co-cultured with amph-labeled K562 cells (Fig 2I); assay type: cell-based
FMC63-mCAR-T cells [2] = assay: CTV dilution of FMC63-mCAR-T cells in LNs after amph-mimotope vaccination (Fig 5D); assay type: in vivo, C57BL/6 mice; conditions: 10 nmol amph-peptide + 25μg CDG, 48 hours after vaccination, n=3
FMC63^IgG [3] = assay: ELISA of FMC63 IgG binding to plate-bound synthetic mimotopes (Fig 2F, 3F); conditions: peptide pre-treated with DTT
FMC63^IgG [4] = assay: Flow cytometry of FMC63 IgG binding to mimotope yeast clones (Fig 2E, 3B, 3D, 3E)
Target sequence in this assay (as listed by the source): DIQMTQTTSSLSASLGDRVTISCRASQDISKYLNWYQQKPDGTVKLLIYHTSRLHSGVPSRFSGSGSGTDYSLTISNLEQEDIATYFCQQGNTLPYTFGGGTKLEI

FMC63-mCAR-T cells [5] = assay: IFN-γ ELISA, FMC63-mCAR-T co-cultured with amph-mimotope-labeled K562 cells (Fig 5B); assay type: cell-based, mouse
[6] = Clinical data, pediatric B-ALL: CAR-T expansion by qPCR and B cell aplasia (Fig 1A-D); assay type: in vivo, human; conditions: for probability of continued B-cell aplasia: at 6 months
[7] = Clinical data, adult B-ALL: peak CAR-T expansion by qPCR (EDF2A); assay type: in vivo, human; conditions: adult relapsed/refractory ALL
[8] = Clinical data, adult B-cell lymphoma: peak CAR-T expansion by qPCR (EDF2B); assay type: in vivo, human; conditions: relapsed/refractory B-NHL
FMC63^scFv [9] = assay: Retention of prebound biotin-FMC63 scFv on yeast clones under competition with FMC63 IgG (Fig 3I); assay type: binding; conditions: pre-stained with 50nM Biotin-FMC63^scFv, then 1μM FMC63^IgG
[10] = tested on: FMC63^scFv binding to CD19^+ NALM6 cells; assay: FMC63 scFv staining of NALM6 cells after pre-incubation with mimotope (Fig 4E); set-up: species or system human; conditions: scFv pre-blocked with mimotope
[11] = tested on: FMC63^IgG binding to CD19^+ NALM6 cells; assay: FMC63 IgG staining of NALM6 cells in the presence of mimotope (Fig 4E); set-up: species or system human
CD19-CAR Jurkat T cells = assay: CD69 expression on mimotope-pre-incubated CD19-CAR Jurkat T cells co-cultured with NALM6 (Fig 4F); assay type: cell-based, human; conditions: 1:1 E:T, 16 hours
[12] = tested on: primary mouse B cells (mouse CD19); assay: FMC63 IgG binding to primary mouse B cells by flow cytometry (EDF7D)

amph-P1: P1 with N-terminal azide conjugated to DSPE-PEG2k-DBCO ({DSPE‑PEG2k‑DBCO}-[Lys(N3)]RHCPWNCSLL; not fully specified; cysteine pairing not given here)
Kd (FMC63^scFv [1]): > 1000 nM
IFN-γ by ELISA (CD19 CAR-T cells; CD19^− K562 labeled with 100 nM amph-P1, CD19 CAR-T 5:1 E:T, triplicate samples): 79.6185 and 80.063 and 79.9889
IFN-γ secretion from CD19 CAR-T cells (in words) (CD19 CAR-T cells; K562 labeled with 100 nM amph-P1, 5:1 E:T): effectively triggered IFN-γ secretion from CD19 CAR-T cells but to a much lesser extent than NALM6 cells
stimulation of control EGFRvIII CAR-T cells (in words) (EGFRvIII-CAR-T cells; K562 labeled with 100 nM amph-ligand, 5:1 E:T, 6 hours, IFN-γ ELISA): failed to stimulate
IFN-γ secretion, EGFRvIII-CAR-T with amph-labelled K562 (Fig 2I) (EGFRvIII-CAR-T cells; replicate 1): 128
IFN-γ secretion, EGFRvIII-CAR-T with amph-labelled K562 (Fig 2I) (EGFRvIII-CAR-T cells; replicate 2): 153
IFN-γ secretion, EGFRvIII-CAR-T with amph-labelled K562 (Fig 2I) (EGFRvIII-CAR-T cells; replicate 3): 104
CAR-T cell proliferation (CTV dilution) in LNs (in words) (FMC63-mCAR-T cells [2]): no CAR-T cell proliferation

RHCPWNCSLL (disulfide) [P1]
FMC63^IgG binding to DTT-treated peptide (FMC63^IgG [3]): completely ablated
binding of yeast clone at 20 nM biotinylated FMC63^IgG (FMC63^IgG [4]; flow cytometry): no detectable binding
FMC63^IgG binding to yeast clone under mild reductive conditions (FMC63^IgG [4]; yeast treated with 0.1mM, 1mM DTT, 500 nM biotin-FMC63^IgG): eliminated FMC63^IgG binding

amph-F12: amphiphile (DSPE-PEG2k) conjugate of F12 ({DSPE‑PEG2k‑DBCO-azido lysine}-RICPWNCKEL; disulfide 3-7 (inferred))
CAR-T cell proliferation (CTV dilution) in LNs (in words) (FMC63-mCAR-T cells [2]): limited proliferation

amph-mimotopeF12 ({DSPE‑PEG2k‑DBCO}-[Lys(N3)]RICPWNCKEL; disulfide 4-8 (inferred))
IFN-γ secretion, FMC63-mCAR-T with amph-labelled K562 (Fig 5B) (FMC63-mCAR-T cells [5]; replicate 1): 739.091
IFN-γ secretion, FMC63-mCAR-T with amph-labelled K562 (Fig 5B) (FMC63-mCAR-T cells [5]; replicate 2): 671.636
IFN-γ secretion, FMC63-mCAR-T with amph-labelled K562 (Fig 5B) (FMC63-mCAR-T cells [5]; replicate 3): 771.636

tisagenlecleucel
median time to peak CAR-T expansion ([6]; after infusion, both cohorts (high ≥40%, n=40; low <40%, n=90), qPCR): 10 days
probability of continued B-cell aplasia ([6]; high tumor burden patients, 95% CI 55–95): 72%
probability of continued B-cell aplasia ([6]; low tumor burden patients, 95% CI 57–78): 67%
peak of expansion ([7]; high tumor burden (n=23)): 77,109 CAR19 copies/μg of DNA
peak of expansion ([7]; low tumor burden (n=6)): 25,064 CAR19 copies/μg of DNA
CAR-T19 expansion ([8]; high disease burden (n=7)): 35,857 CAR19 copies/μg of DNA
CAR-T19 expansion ([8]; low tumor burden (n=30)): 18,718 CAR19 copies/μg of DNA

PRKHSGRICPWNCKELDNPPFIFGNR (disulfide) [F12-A1]
time FMC63^scFv remained bound on yeast surface in the presence of excess soluble FMC63^IgG (FMC63^scFv [9]): over 24 hours
mimotope concentration at which FMC63^scFv binding to NALM6 cells is compromised / abolished [10]: greater than 1 μM
mimotope concentration at which FMC63^IgG binding to CD19 is abolished [11]: > 10 µM
CD69 induction on FMC63 CAR Jurkat cells stimulated with NALM6 after pre-blocking with mimotope (CD19-CAR Jurkat T cells): not affected

FMC63 IgG: recombinant FMC63 (anti-human CD19) expressed as a full-length IgG
binding to WT B cells expressing mouse CD19 (in words) [12]: minimal binding
